Test results: PubChem BioAssay (NCI)
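Five compound concentrations were applied to cells in 96-well plates for 48 hours; endpoints were derived by simple linear interpolation of the resulting dose-response curve. GI50 is the concentration that inhibits growth by half. At the TGI there is no net growth.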

What was measured:
Assay in all cases: NCI-60 cell line screen, 48 h
UACC-62 melanoma = system: UACC-62 melanoma
HOP-62 NSCLC = system: HOP-62 NSCLC
TK-10 renal = system: TK-10 renal
SR leukemia = system: SR leukemia
MCF7 breast = system: MCF7 breast
LOX IMVI melanoma = system: LOX IMVI melanoma
M14 melanoma = system: M14 melanoma
HS 578T breast = system: HS 578T breast
HL-60(TB) leukemia = system: HL-60(TB) leukemia
T-47D breast = system: T-47D breast

Row | Structure (SMILES) | TGI (UACC-62 melanoma) [µM] | TGI (HOP-62 NSCLC) [µM] | TGI (TK-10 renal) [µM] | TGI (SR leukemia) [µM] | TGI (MCF7 breast) [µM] | TGI (LOX IMVI melanoma) [µM] | TGI (M14 melanoma) [µM] | TGI (HS 578T breast) [µM] | TGI (HL-60(TB) leukemia) [µM] | TGI (T-47D breast) [µM] | GI50 (UACC-62 melanoma) [µM] | GI50 (HOP-62 NSCLC) [µM] | GI50 (TK-10 renal) [µM] | GI50 (SR leukemia) [µM] | GI50 (MCF7 breast) [µM] | GI50 (LOX IMVI melanoma) [µM] | GI50 (M14 melanoma) [µM] | GI50 (HS 578T breast) [µM] | GI50 (HL-60(TB) leukemia) [µM] | GI50 (T-47D breast) [µM]
1 | Cc1ccc2sc3ccc(N)cc3c(=O)c2c1 | > 100 | > 100 | > 100 | > 100 | > 100 | > 100 | > 100 | > 100 | > 100 | 78.5 |  |  |  |  |  |  |  |  |  | 
2 | COc1cc(/C=C2\CN(C(=O)CCN3CCC(=NO)CC3)C/C(=C\c3cc(OC)c(OC)c(OC)c3)C2=O)cc(OC)c1OC | 0.411 | 2.39 | 2.8 | > 27.7 | 2.44 | 0.472 | 0.812 | 13.5 | 1.05 | 10.6 | 0.182 | 0.719 | 1.18 | 0.255 | 0.382 | 0.194 | 0.248 | 0.441 | 0.298 | 0.803
3 | Oc1c(CN2CCCC2)cc(CSCc2ccccc2)c2cccnc12 | 2.29 | 7.78 | 13.1 | 2.32 | 11.3 | 2.48 | 2.59 | 25 | 2.77 | 8.26 | 0.363 | 0.513 | 0.775 | 0.392 | 0.475 | 0.386 | 0.397 | 4.7 | 0.554 | 1.15
